Source: PubChem BioAssay (NCI)
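Abbreviation: GI50, concentration required for 50% inhibition of growth. At the TGI there is no net growth.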

How the values were obtained:
Experiment in all cases: growth of human tumour cells (NCI), 384-well format
[1] = system: TK-10 renal
[2] = system: NCI-H226 lung
[3] = system: COLO 205 colon
[4] = system: NCI-H322M lung
[5] = system: UACC-62 melanoma
[6] = system: MCF7 breast
[7] = system: RXF 393 renal
[8] = system: BT-549 breast
[9] = system: SK-MEL-2 melanoma
[10] = system: SNB-19 CNS
[11] = system: SW-620 colon
[12] = system: HCT-15 colon
[13] = system: SF-539 CNS
[14] = system: HCT-116 colon
[15] = system: NCI-H460 NSCLC
[16] = system: K-562 leukemia
[17] = system: UO-31 renal
[18] = system: RPMI-8226 leukemia
[19] = system: U251 glioblastoma
[20] = system: SN12C renal
[21] = system: MDA-MB-435 melanoma
[22] = system: OVCAR-3 ovarian
[23] = system: KM12 colon
[24] = system: A498 renal
[25] = system: HOP-92 NSCLC
[26] = system: HT29 colon
[27] = system: SF-268 CNS
[28] = system: OVCAR-8 ovarian
[29] = system: SK-MEL-28 melanoma
[30] = system: ACHN renal
[31] = system: CAKI-1 renal
[32] = system: 786-0 renal
[33] = system: SR leukemia
[34] = system: T-47D breast
[35] = system: SK-MEL-5 melanoma
[36] = system: MDA-MB-231 breast
[37] = system: NCI-H522 lung
[38] = system: HL-60(TB) leukemia
[39] = system: MALME-3M melanoma
[40] = system: LOX IMVI melanoma
[41] = system: IGROV1 ovarian
[42] = system: HS 578T breast
[43] = system: CCRF-CEM leukemia
[44] = system: HCC-2998 colon
[45] = system: HOP-62 NSCLC
[46] = system: OVCAR-4 ovarian
[47] = system: A549 NSCLC
[48] = system: EKVX NSCLC
[49] = system: UACC-257 melanoma
[50] = system: OVCAR-5 ovarian
[51] = system: MOLT-4 leukemia
[52] = system: SNB-75 CNS
[53] = system: DU-145 prostate
[54] = system: SF-295 CNS
[55] = system: SK-OV-3 ovarian
[56] = system: NCI/ADR-RES ovarian
[57] = system: PC-3 prostate
[58] = system: MDA-MB-468 breast

Structure (SMILES): CCOc1cc(-c2nncn2C)ccc1Nc1ncc2cc(C)nc(NCC(C)(C)C)c2n1
- GI50 [1]: 3.89 µM
- TGI [1]: > 100 µM
- GI50 [2]: 15.9 µM
- TGI [2]: > 100 µM
- GI50 [3]: 0.196 µM
- TGI [3]: > 100 µM
- GI50 [4]: > 100 µM
- TGI [4]: > 100 µM
- GI50 [5]: > 100 µM
- TGI [5]: > 100 µM
- TGI [6]: > 100 µM
- GI50 [7]: 1.34 µM
- TGI [7]: 99.1 µM
- GI50 [8]: 0.85 µM
- TGI [8]: > 100 µM
- GI50 [9]: > 100 µM
- TGI [9]: > 100 µM
- GI50 [10]: 86.7 µM
- TGI [10]: > 100 µM
- GI50 [11]: 0.304 µM
- TGI [11]: > 100 µM
- GI50 [12]: 0.0738 µM
- TGI [12]: > 100 µM
- GI50 [13]: 0.351 µM
- TGI [13]: > 100 µM
- GI50 [14]: 0.062 µM
- TGI [14]: > 100 µM
- GI50 [15]: 0.169 µM
- TGI [15]: > 100 µM
- GI50 [16]: 0.918 µM
- TGI [16]: > 100 µM
- GI50 [17]: 0.514 µM
- TGI [17]: > 100 µM
- GI50 [18]: 0.3 µM
- TGI [18]: 3.77 µM
- GI50 [19]: 0.46 µM
- TGI [19]: > 100 µM
- GI50 [20]: > 100 µM
- TGI [20]: > 100 µM
- GI50 [21]: > 100 µM
- TGI [21]: > 100 µM
- GI50 [22]: 0.969 µM
- TGI [22]: > 100 µM
- GI50 [23]: 0.0967 µM
- TGI [23]: > 100 µM
- GI50 [24]: 0.548 µM
- TGI [24]: > 100 µM
- GI50 [25]: > 100 µM
- TGI [25]: > 100 µM
- GI50 [26]: > 100 µM
- TGI [26]: > 100 µM
- GI50 [27]: 10.5 µM
- TGI [27]: > 100 µM
- GI50 [28]: 0.377 µM
- TGI [28]: > 100 µM
- GI50 [29]: > 100 µM
- TGI [29]: > 100 µM
- GI50 [30]: 1.77 µM
- TGI [30]: > 100 µM
- GI50 [31]: > 100 µM
- TGI [31]: > 100 µM
- GI50 [32]: 0.468 µM
- TGI [32]: > 100 µM
- GI50 [33]: 0.139 µM
- TGI [33]: 0.333 µM
- GI50 [34]: 7.93 µM
- TGI [34]: > 100 µM
- GI50 [35]: 0.461 µM
- TGI [35]: > 100 µM
- GI50 [36]: 47.8 µM
- TGI [36]: > 100 µM
- GI50 [37]: 0.669 µM
- TGI [37]: > 100 µM
- GI50 [38]: 0.266 µM
- TGI [38]: 0.587 µM
- GI50 [39]: 37.1 µM
- TGI [39]: > 100 µM
- GI50 [40]: 0.179 µM
- TGI [40]: > 100 µM
- GI50 [41]: > 100 µM
- TGI [41]: > 100 µM
- GI50 [42]: 0.188 µM
- TGI [42]: > 100 µM
- GI50 [43]: 0.0772 µM
- TGI [43]: 0.278 µM
- GI50 [44]: > 100 µM
- TGI [44]: > 100 µM
- GI50 [45]: 0.23 µM
- TGI [45]: > 100 µM
- GI50 [46]: > 100 µM
- TGI [46]: > 100 µM
- GI50 [47]: 0.0992 µM
- TGI [47]: > 100 µM
- GI50 [48]: 2.05 µM
- TGI [48]: > 100 µM
- GI50 [49]: > 100 µM
- TGI [49]: > 100 µM
- GI50 [50]: 1.33 µM
- TGI [50]: > 100 µM
- GI50 [51]: 0.0223 µM
- TGI [51]: 0.0463 µM
- GI50 [52]: > 100 µM
- TGI [52]: > 100 µM
- GI50 [53]: 0.365 µM
- TGI [53]: > 100 µM
- GI50 [54]: > 100 µM
- TGI [54]: > 100 µM
- GI50 [55]: > 100 µM
- TGI [55]: > 100 µM
- GI50 [56]: 0.618 µM
- TGI [56]: > 100 µM
- GI50 [57]: 18 µM
- TGI [57]: > 100 µM
- GI50 [58]: 0.578 µM
- TGI [58]: 7.02 µM
